Assays:
Format in all cases: cell-based, human
HKCs = test: LH/FSH ratio in 3D constructs after DHEA, Estrone, Estriol stimulation (Western blot); settings: HKCs (cells from Keratoconus patients), 4 weeks, FIGS. 9A to 9C
Source text: (§1) In FIGS. 9A to 9C, healthy corneas were obtained from the National Disease Research Interchange (NDRI). KC corneas were obtained from individuals immediately following corneal transplantation. Inclusion/exclusion criteria for healthy controls required absence of ophthalmic disease, diabetes, or infectious conditions. Tissue from KC patients who had previously undergone collagen crosslinking was excluded. Corneal stromal cells were isolated from healthy (HCFs) and KC (HKCs) corneas. Both HCFs and HKCs were isolated as previously described. Briefly, using a surgical scalpel, the corneal epithelium and endothelium were removed. The corneal stroma was then washed in sterile PBS, cut into small pieces (approximately 2×2 mm), and placed into flasks; the cells were then allowed to adhere. Explants were grown for 2-4 weeks at 37° C./5% CO2/95% relative humidity, using Eagle's Minimum Essential Media (EMEM) supplemented with 10% fetal bovine serum (Atlanta Biologicals, Flowery Branch, GA, USA), and antibiotic/antimycotic (Anti/Anti, Life Technologies, Grand Island, NY, USA). Once confluent, cells were isolated following trypsinization, subcultured, or frozen using standard cryoprotective protocols. Three-dimensional constructs: —HCFs and HKCs were plated at a density of 1×10^6 cells/well on six-well size polycarbonate membrane inserts with 0.4-μm pores (VWR, Radnor, PA, USA). The cells were cultured in EMEM containing 10% FBS, 1% antibiotic, and stimulated with a stable Vitamin C derivative (0.5 mM 2-O-α-D-glucopyranosyl-L-ascorbic acid: Sigma-Aldrich, St. Louis, MO, USA). Cultures were grown for a total of 4 weeks and fresh media was supplied every other day for the duration of the study. Protein extraction and further analysis occurred at the 4-week timepoint.
(§2) All cultures were collected and washed twice with PBS, and total protein was isolated using 1× radioimmunoprecipitation assay (RIPA) buffer (50 mM Tris pH 8, 150 mM NaCl, 1% Triton X-100, and 0.1% SDS) containing a protease inhibitor cocktail (Sigma-Aldrich, St. Louis, MO, USA). Cell lysates were centrifuged at 4° C., and the supernatant was isolated and subjected to a Pierce BCA Protein assay (ThermoScientific, Rockford, IL, USA) for protein concentration quantification. Novex 4-20% Tris-glycine mini WedgeWell format 12-well gels (FisherScientific, Hampton, NH, USA) were electrophoresed at 130 V for 1.5 h, and transferred onto a nitrocellulose membrane at 100 V for 1 hour on ice. B lots were blocked in 5% dry milk (Great Value, Bentonville, AR, USA) for 1 h, at room temperature, with shaking. […] Results were analyzed by normalizing values to the expression of housekeeping antibody β-Actin (Abcam, Cambridge, MA, USA).

HCFs = test: as above; settings: HCFs (cells from Healthy individuals), 4 weeks, FIGS. 9A to 9C
Source text: as §1, §2

Healthy cells (HCFs) = test: LH/FSH ratio after PIP treatment (Western blot); settings: PIP 50-500 ng/ml, 48 hours, in a concentration dependent manner, FIG. 12
Protocol: (§3) In FIG. 12, HCFs and HKCs were seeded in 12-well plates at 5×10^5 cells/well in regular media. 24 hours later media was replaced for treatment media (regular media supplemented with the treatment). The treatments consisted on five different concentrations of PIP: 50 ng/ml, 100 ng/ml, 200 ng/ml, 350 ng/ml and 500 ng/ml at a number of four wells per treatment. After 48 hours treatment finished and all the wells were wash with PBS and proteins were extracted using 1 ml of RIPA buffer 1×. Bradford assay (Thermo scientific, IL, USA) was carried out to determine the protein concentration and normalize the samples. For western blot analysis samples were mixed with loading buffer and equal amounts of protein were loaded (25 μg per lane) on a 4-20% Tris-Glycine gel (Novex, Life technologies, Carlsbad, CA) and electrophoresed at 135-140V for 1.5 hour. Each sample was run single. T hereafter, the gel was transferred on to a nitrocellulose membrane (Novex, Nitrocellulose membrane, Life Technologies, Carlsbad, CA), at 100V for 1 hour on ice. Finally, the membranes were blocked in milk (5% milk in TBST; Thermo scientific, IL, USA) for 1 hour and incubated overnight in the rocker at 4° C. with the primary antibody at 1:250 dilution. […] GAPDH (rabbit polyclonal ab9485, Abcam, Cambridge, MA) was used as housekeeping for all the targets at a dilution of 1:1000. […]

KC cells (HKCs) = test: LH/FSH ratio after PIP treatment (Western blot); settings: PIP 50-500 ng/ml, 48 hours, in a concentration dependent manner, FIG. 12
Protocol: as §3

Molecule: C[C@]12CC[C@@H]3c4ccc(O)cc4CC[C@H]3[C@@H]1C[C@@H](O)[C@@H]2O [Estriol]
- LH/FSH ratio modulated in vitro (HKCs): “recovering” towards a healthy phenotype
- LH/FSH ratio modulated in vitro (HCFs): moving towards a disease-phenotype

Molecule: C[C@]12CC[C@H](O)CC1=CC[C@@H]1[C@@H]2CC[C@]2(C)C(=O)CC[C@@H]12 [DHEA]
- LH/FSH ratio modulated in vitro (HKCs): “recovering” towards a healthy phenotype
- LH/FSH ratio modulated in vitro (HCFs): moving towards a disease-phenotype

B1: PIP: hormonally regulated protein, a 17-kDa glycoprotein (protein, UniProt P12273 29-146, looked up)
Prolactin-inducible protein: QDNTRKIIIKNFDIPKSVRPNDEVTAVLAVQTELKECMVVKTYLISSIPLQGAFNYKYTACLCDDNPKTFYWDFYTNRTVQIAAVVDVIRELGICPDDAAVIPIKNNRFYTIEILKVE
- LH/FSH ratio modulation (Healthy cells (HCFs)): modulated
- LH/FSH ratio modulation (KC cells (HKCs)): modulated

— patent publication US12442827B2 (UNIVERSITY OF NORTH TEXAS HEALTH SCIENCE CENTER AT FORT …, priority 2019, dated 2025)
